According to publication PMC12441834, “Highly Potent and Subtype-Selective Sperm-Specific Potassium Channel SLO3 Inhibitors Display High Tissue Exposure in the Murine Female Reproductive Tract” (ACS Pharmacology & Translational Science, 2025):
Values joined by “and” are separate entries in the source; they are usually repeats but may differ in a detail not shown here. Equal values may be shown once. Read-outs that look alike come from different tables or passages of the source.

Key:
[1] = molecular target: Leukotriene, Cysteinyl CysLT1 (Homo sapiens, UniProt Q9Y271); assay: LeadProfilingScreen radioligand binding
[2] = molecular target: Nicotinic Acetylcholine α1, Bungarotoxin (Homo sapiens, UniProt P02708+P07510+Q07001); assay: biochemical; type: binding; conditions: read-out: % inhibition at 10 μM
[3] = molecular target: Adrenergic β1 (Homo sapiens, UniProt P08588); assay: LeadProfilingScreen radioligand binding
[4] = Discrete IV PK in female mice; type: in vivo, mouse; conditions: 5 mg/kg IV
Procedure: In-life phase–Compounds were formulated in 12% ethanol, 48% PEG400, and 40% DMSO (v/v/v) at a concentration of 1 mg/mL and administered as a single 0.2 mg/kg IV dose (1 mL/kg) to male, Sprague–Dawley rats (n = 1; 342 g body weight) via injection into a surgically implanted jugular vein catheter. Blood samples were collected serially from a surgically implanted carotid artery catheter in each animal over multiple postadministration time points (0.033, 0.117, 0.25, 0.5, 1, 2, 4, 7, and 24 h) into chilled, K2EDTA anticoagulant-fortified tubes and immediately placed on wet ice. The blood samples were then centrifuged (1700 rcf, 5 min, 4 °C) in order to obtain plasma samples, which were stored at −80 °C until analysis by LC-MS/MS. VU6032735 was also dosed IV in C57Bl6 mice at 5 mg/kg IV to determine mouse PK. Formulation and experimental design were identical to those used for rats except that whole blood was used for analysis.
(§1) Samples were analyzed via electrospray ionization (ESI) LC-MS/MS on an AB Sciex 4500 (Foster City, CA) triple-quadrupole instrument that was coupled with an Agilent 1290 Infinity Binary Pump and multisampler (Santa Clara, CA) and concentrations (ng/mL or ng/g) were determined using a matrix-matched 10-point standard curve and then converted to nM concentrations. Quantitation of compounds was performed via AB Sciex Multiquant software using the raw analyte:IS peak area ratios. The typical detection range was 0.5 ng/mL to ≥5000 ng/mL utilizing a quadratic equation regression with 1/x² weighting. Correction for dilution of all tissue samples was performed postquantitation. The corrections for dilution in the extraction buffer employed correction factors specific to each tissue weight.

[5] = molecular target: Muscarinic M1 (Homo sapiens, UniProt P11229); assay: LeadProfilingScreen radioligand binding
[6] = molecular target: Glucocorticoid (Homo sapiens, UniProt P04150); assay: LeadProfilingScreen radioligand binding
[7] = system: Glutamate, Kainate; assay: LeadProfilingScreen radioligand binding; parameters: species or system rat
[8] = molecular target: Dopamine D4.4 (Homo sapiens, UniProt P21917); assay: LeadProfilingScreen radioligand binding
[9] = molecular target: Potassium Channel [KATP] (Cricetus cricetus, UniProt Q09427); assay: LeadProfilingScreen radioligand binding; parameters: species or system hamster
Procedure: Both lead compounds, VU6047606 and VU6032735, were subjected to radioligand binding assays in a Eurofins LeadProfilingScreen SafetyScreen Panel to detect potential adverse activity, relative selectivity, and off-target activity. Compounds were screened at 10 μM and percent inhibition was monitored across 68 potential off-target G protein-coupled receptors, ion channels, nuclear hormone receptors, and transporters. ,

[10] = Multispecies hepatocyte MetID; type: in vitro ADME, dog; conditions: 4 h incubation with hepatocytes, 10 μM
Procedure: Metabolites were identified after preincubating each compound at a 10 μM final concentration with 2.5 × 10^5 hepatocytes from human, dog, cynomolgus monkey, and rat in 200 μL of Optiincubate buffer (BioIVT, Westbury, NY). […] After centrifugation, 60 μL of the supernatant was transferred to 60 μL of water for LC-MS analysis. Samples were analyzed using a Thermo Scientific Vanquish UHPLC consisting of a VH-P10-A pump, a VH-A10-A sampler module, a VH-C10-A column compartment, and the VF-D11-A UV detector coupled to an Orbitrap Fusion Lumos instrument with UVPD. A binary solvent system consisting of (A) water with 0.1% formic acid and (B) acetonitrile with 0.1% formic acid was used with an Accucore Vanquish C18+, 2.1 mm × 100 mm, 1.5 μm, UHPLC column maintained at 40 °C. The data generated by data-dependent acquisition via normal acquisition and AcquireX were processed manually with Thermo Scientific FreeStyle and assisted by Compound Discoverer 3.3.1.111 to aid in the structural assignments.

[11] = molecular target: Adrenergic α1B (Homo sapiens, UniProt P35368); assay: LeadProfilingScreen radioligand binding
[12] = Drug concentrations in compartments of the murine FRT after IP dosing; type: in vivo, mouse; conditions: 10 mg/kg IP; for concentration at 0.25 hr / concentration at 0.5 hr / concentration at 1 hr / concentration at 3 hr / concentration at 6 hr / concentration at 24 hr: mouse
Procedure: as §1
In subsequent experiments, mice were dosed by injection into the peritoneum (ip) as a single 10 mg/kg dose, the reproductive organs were dissected, and the ovaries, the oviducts, and the uterus were pooled from 2 animals and frozen. Tissues were subjected to mechanical homogenization (Mini-BeadBeater, BioSpec Products, Inc., Bartlesville, OK) in the presence of stainless-steel beads (1.0 mm) and extraction buffer (isopropanol:water, 7:3, v/v; 1 mL per sample for whole reproductive organs and uterus and 250 μL for ovaries and oviducts). Homogenized tissue samples were then centrifuged (4000 rcf, 5 min, ambient temperature), and 5 μL of the supernatant was used for quantification of the analyte. The plasma standard curve and QCs were used for compound quantitation in reproductive tissues.

[13] = molecular target: T1, hSLO2.2 (Homo sapiens, UniProt Q5JUK3); assay: SLO2.2 inhibition in HEK cells; type: cell-based
T1 construct: expressed in transfected cells; host or cells: HEK

[14] = ovary, female mice, read-out: Ovary concentration
[15] = oviduct, female mice, read-out: Oviduct concentration
[16] = plasma, female mice, read-out: Plasma concentration
[17] = uterus, female mice, read-out: Uterus concentration

Sequence of Leukotriene, Cysteinyl CysLT1 (Q9Y271 whole entry): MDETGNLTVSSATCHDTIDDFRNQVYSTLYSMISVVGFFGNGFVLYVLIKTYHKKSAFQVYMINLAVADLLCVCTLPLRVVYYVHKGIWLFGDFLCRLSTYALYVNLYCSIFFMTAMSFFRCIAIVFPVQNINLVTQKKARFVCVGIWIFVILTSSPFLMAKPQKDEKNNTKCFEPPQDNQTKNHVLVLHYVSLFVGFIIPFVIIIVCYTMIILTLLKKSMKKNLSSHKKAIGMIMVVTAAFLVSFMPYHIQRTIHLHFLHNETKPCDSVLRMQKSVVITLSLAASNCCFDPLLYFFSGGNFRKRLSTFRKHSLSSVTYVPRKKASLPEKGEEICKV
Sequence of Adrenergic β1 (P08588 whole entry): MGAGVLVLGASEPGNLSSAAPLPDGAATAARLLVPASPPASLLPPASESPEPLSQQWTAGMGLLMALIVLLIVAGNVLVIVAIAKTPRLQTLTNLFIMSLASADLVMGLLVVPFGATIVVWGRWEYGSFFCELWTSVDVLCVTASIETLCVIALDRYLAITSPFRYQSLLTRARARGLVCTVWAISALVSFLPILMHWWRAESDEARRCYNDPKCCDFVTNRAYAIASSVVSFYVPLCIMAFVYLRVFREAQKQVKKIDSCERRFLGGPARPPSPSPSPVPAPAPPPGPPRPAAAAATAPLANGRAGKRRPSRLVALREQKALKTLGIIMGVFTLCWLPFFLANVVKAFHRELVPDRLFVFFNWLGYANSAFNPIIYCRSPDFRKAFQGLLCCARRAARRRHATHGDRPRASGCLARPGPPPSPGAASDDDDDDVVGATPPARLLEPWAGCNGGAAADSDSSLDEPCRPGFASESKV
Sequence of Dopamine D4.4 (P21917 whole entry): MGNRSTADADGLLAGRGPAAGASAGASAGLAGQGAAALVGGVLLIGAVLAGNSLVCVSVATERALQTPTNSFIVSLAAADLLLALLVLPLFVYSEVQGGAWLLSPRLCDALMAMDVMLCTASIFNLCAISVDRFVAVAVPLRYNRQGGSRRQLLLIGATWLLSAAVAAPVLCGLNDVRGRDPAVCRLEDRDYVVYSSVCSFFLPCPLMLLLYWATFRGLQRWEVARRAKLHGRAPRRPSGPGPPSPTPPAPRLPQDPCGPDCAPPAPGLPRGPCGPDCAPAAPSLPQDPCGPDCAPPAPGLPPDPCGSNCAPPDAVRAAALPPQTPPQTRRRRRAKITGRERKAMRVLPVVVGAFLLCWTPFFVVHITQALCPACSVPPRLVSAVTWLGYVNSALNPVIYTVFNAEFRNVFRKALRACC
Sequence of Nicotinic Acetylcholine α1, Bungarotoxin (P02708 21-457): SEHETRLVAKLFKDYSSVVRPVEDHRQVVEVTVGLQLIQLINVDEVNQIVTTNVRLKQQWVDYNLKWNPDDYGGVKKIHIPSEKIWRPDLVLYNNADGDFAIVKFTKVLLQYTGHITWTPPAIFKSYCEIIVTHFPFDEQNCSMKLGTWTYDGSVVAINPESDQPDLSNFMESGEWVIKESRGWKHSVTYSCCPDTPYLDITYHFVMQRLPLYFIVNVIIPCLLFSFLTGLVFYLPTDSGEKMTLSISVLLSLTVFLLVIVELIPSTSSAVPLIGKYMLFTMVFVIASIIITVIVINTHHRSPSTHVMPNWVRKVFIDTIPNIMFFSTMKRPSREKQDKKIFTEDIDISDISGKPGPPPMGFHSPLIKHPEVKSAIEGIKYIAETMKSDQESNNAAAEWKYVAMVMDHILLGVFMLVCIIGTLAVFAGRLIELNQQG
Sequence of Nicotinic Acetylcholine α1, Bungarotoxin (P07510 23-517): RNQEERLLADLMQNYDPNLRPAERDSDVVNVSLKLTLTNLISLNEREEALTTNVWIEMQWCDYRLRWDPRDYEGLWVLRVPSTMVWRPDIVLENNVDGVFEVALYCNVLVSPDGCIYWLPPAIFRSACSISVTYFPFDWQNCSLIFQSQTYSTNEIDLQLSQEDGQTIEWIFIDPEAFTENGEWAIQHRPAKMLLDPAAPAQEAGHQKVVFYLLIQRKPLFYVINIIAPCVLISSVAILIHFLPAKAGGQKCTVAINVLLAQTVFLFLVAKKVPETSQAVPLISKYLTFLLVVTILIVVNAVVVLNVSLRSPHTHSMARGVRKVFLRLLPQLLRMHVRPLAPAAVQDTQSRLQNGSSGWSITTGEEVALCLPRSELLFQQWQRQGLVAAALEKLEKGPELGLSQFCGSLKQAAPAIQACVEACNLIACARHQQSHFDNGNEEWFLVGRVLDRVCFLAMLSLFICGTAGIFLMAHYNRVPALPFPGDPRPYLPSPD
Sequence of Nicotinic Acetylcholine α1, Bungarotoxin (Q07001 22-517): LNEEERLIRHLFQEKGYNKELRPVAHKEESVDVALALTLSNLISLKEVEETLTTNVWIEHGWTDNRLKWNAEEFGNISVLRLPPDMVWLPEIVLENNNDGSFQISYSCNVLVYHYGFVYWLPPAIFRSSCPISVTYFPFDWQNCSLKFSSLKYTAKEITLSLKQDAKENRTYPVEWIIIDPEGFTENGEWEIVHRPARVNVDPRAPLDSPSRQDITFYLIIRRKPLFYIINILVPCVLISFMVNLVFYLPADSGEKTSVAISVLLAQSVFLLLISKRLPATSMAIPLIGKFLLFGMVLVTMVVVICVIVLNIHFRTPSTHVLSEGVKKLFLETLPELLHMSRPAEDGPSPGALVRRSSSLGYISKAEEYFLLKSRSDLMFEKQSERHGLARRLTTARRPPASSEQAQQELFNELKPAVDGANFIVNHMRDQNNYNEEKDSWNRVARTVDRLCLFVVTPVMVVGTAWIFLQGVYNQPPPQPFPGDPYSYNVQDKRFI
Sequence of Nicotinic Acetylcholine α1, Bungarotoxin (P11230 24-501, further chain): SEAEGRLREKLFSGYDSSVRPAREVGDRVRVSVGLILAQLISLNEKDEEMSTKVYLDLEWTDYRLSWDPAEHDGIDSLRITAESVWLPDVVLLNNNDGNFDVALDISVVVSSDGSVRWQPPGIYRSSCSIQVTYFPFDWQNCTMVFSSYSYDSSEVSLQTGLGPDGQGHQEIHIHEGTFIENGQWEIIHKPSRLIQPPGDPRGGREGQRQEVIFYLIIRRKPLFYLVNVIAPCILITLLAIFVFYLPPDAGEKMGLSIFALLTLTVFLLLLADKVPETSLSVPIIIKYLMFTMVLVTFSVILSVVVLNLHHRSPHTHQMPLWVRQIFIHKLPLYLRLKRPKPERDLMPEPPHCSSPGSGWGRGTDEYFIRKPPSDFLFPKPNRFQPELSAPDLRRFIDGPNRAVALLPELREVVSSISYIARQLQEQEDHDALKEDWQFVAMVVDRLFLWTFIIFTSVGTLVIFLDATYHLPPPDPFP
Sequence of Potassium Channel [KATP] (Q09427 whole entry): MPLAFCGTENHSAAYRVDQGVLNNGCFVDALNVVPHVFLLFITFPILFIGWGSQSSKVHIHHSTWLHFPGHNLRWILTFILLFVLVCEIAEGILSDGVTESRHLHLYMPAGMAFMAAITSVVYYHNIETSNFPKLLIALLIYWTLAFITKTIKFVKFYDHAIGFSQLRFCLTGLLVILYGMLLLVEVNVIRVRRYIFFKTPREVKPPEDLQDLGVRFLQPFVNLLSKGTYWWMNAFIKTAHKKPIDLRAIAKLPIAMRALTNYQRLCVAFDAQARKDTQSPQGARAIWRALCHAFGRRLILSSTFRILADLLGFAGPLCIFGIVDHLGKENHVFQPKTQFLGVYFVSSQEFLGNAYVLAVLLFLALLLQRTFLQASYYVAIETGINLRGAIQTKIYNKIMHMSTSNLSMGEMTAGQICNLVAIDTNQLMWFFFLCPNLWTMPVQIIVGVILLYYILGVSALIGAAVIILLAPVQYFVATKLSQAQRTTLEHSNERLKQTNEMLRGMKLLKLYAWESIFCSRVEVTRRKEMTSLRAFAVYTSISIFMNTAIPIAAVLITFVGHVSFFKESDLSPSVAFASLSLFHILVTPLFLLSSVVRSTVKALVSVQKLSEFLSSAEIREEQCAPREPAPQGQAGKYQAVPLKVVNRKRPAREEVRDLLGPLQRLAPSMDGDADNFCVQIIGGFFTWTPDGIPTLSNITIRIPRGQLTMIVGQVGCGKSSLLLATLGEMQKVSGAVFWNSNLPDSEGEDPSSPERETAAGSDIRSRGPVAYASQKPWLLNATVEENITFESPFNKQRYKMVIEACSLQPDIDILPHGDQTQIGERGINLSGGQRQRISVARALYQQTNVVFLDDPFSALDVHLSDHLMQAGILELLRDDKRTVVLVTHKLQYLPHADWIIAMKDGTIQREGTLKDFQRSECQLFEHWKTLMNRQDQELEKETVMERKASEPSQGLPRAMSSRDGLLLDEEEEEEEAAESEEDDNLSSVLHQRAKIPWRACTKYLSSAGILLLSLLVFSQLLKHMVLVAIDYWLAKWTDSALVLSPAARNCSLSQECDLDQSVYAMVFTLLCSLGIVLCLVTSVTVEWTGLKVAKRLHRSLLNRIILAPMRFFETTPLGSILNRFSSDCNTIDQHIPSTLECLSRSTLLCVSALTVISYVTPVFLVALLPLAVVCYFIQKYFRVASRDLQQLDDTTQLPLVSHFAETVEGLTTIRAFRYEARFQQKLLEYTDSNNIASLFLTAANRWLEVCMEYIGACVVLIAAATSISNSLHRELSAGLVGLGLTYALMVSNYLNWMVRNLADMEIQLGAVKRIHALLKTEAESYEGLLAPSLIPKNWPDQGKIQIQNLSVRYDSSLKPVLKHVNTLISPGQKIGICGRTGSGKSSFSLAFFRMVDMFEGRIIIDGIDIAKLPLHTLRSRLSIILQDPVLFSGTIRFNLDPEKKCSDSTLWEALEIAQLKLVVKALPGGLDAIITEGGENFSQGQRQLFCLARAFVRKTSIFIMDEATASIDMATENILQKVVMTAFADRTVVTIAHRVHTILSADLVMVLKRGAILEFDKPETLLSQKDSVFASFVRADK

Molecule `O=C(c1ccc(OCc2ccc(OC(F)(F)F)cc2)cc1)N1CCN(c2ccc(C(F)(F)F)cn2)CC1` [VU6032735] has an inhibition at 10 µM [1] of -3%, an inhibition at 10 µM [2] of 2% and an inhibition at 10 µM [3] of 8%. It also gave a CLobs [4] of 8.6 mL/min/kg, an AUC ([4]; C57Bl6, mouse, whole blood) of 9840 ng·h/mL and an MRT ([4]; C57Bl6, mouse, whole blood) of 45.9 h. It also gave a half-life ([4]; C57Bl6, mouse, whole blood, read-out: Elim. t1/2 (converted)) of 33.7 h, a Vd ([4]; C57Bl6, mouse, whole blood, read-out: Vss) of 23.6 L/kg and an inhibition at 10 µM [5] of -8%. For the same molecule, the inhibition at 10 µM [6] was 10%, the “% inhibition at 10 μM” value [7] was -4% and the inhibition at 10 µM [8] was -5%. For the same molecule, the inhibition at 10 µM [9] was -7%, the “% of Parent Related Material, Dog” value [10] was greater than 98% and the inhibition at 10 µM [11] was -5%. For the same molecule, the “oviduct total drug concentration relative to mSLO3 IC50” value ([12]; 24 h, versus IC50 in mouse sperm and in mSLO3-γ2 HEK293 cells) was 4.4- to 5.5 fold, the “oviduct concentration relative to ovary” value ([12]; female mice) was 10 fold and the “oviduct concentration relative to uterus” value ([12]; female mice) was 5 fold. The “total concentrations in the different compartments of the reproductive tract” value ([12]; female mice, for 24 h after dosing) was “above 1 μM”, the concentration at 0.25 hr [12, 14] was 7.52 µM and the concentration at 0.5 hr [12, 14] was 7.69 µM. The concentration at 1 hr [12, 14] was 7.45 µM, the concentration at 3 hr [12, 14] was 2.63 µM and the concentration at 6 hr [12, 14] was 3.54 µM. For the same molecule, the concentration at 24 hr [12, 14] was 1.97 µM, the concentration at 0.25 hr [12, 15] was 73 µM and the concentration at 0.5 hr [12, 15] was 94.8 µM. The concentration at 1 hr [12, 15] was 95.2 µM, the concentration at 3 hr [12, 15] was 93.6 µM and the concentration at 6 hr [12, 15] was 35.3 µM. For the same molecule, the concentration at 24 hr [12, 15] was 4.02 µM, the concentration at 0.25 hr [12, 16] was 1.15 µM and the concentration at 0.5 hr [12, 16] was 0.45 µM. The concentration at 1 hr [12, 16] was 0.62 µM, the concentration at 3 hr [12, 16] was 0.98 µM and the concentration at 6 hr [12, 16] was 2.14 µM. For the same molecule, the concentration at 24 hr [12, 16] was 0.61 µM, the concentration at 0.25 hr [12, 17] was 12.4 µM and the concentration at 0.5 hr [12, 17] was 11.3 µM. It also gave a concentration at 1 hr [12, 17] of 21.8 µM, a concentration at 3 hr [12, 17] of 4.35 µM and a concentration at 6 hr [12, 17] of 6.66 µM. For the same molecule, the concentration at 24 hr [12, 17] was 3.11 µM.

With `Cc1cc(Cl)cc2sc(OC3CCN(C(=O)CCCS(=O)(=O)c4cccc(Br)c4)CC3F)nc12` (stereo not drawn) [VU6045330] the “HEK hSLO2.2 % inhib. 10 μM” value [13] was “No inhibition”.

`Cc1cc(Cl)cc2sc(O[C@H]3CCN(C(=O)CCCS(=O)(=O)c4cccc(Br)c4)C[C@H]3F)nc12` [VU6047606] gave an inhibition at 10 µM [1] of 2%, an inhibition at 10 µM [2] of 5% and an inhibition at 10 µM [3] of 11%. For the same molecule, the inhibition at 10 µM [5] was 6%, the inhibition at 10 µM [6] was 18% and the “% inhibition at 10 μM” value [7] was -6%. For the same molecule, the inhibition at 10 µM [8] was -8%, the inhibition at 10 µM [9] was -5% and the “% of Parent Related Material, Dog” value [10] was 93.78% and > 82%. It also gave an inhibition at 10 µM [11] of 12%.
